Test results reported in US9297813B2, “Targeting metabolic enzymes in human cancer” (Agency for Science, Technology and Research, priority 2010, dated 2016).

Key:
GLDC [1] = biological target: T1, GLDC (Homo sapiens, UniProt P23378); settings: cited from earlier work
T1 sequence (P23378 36-1020): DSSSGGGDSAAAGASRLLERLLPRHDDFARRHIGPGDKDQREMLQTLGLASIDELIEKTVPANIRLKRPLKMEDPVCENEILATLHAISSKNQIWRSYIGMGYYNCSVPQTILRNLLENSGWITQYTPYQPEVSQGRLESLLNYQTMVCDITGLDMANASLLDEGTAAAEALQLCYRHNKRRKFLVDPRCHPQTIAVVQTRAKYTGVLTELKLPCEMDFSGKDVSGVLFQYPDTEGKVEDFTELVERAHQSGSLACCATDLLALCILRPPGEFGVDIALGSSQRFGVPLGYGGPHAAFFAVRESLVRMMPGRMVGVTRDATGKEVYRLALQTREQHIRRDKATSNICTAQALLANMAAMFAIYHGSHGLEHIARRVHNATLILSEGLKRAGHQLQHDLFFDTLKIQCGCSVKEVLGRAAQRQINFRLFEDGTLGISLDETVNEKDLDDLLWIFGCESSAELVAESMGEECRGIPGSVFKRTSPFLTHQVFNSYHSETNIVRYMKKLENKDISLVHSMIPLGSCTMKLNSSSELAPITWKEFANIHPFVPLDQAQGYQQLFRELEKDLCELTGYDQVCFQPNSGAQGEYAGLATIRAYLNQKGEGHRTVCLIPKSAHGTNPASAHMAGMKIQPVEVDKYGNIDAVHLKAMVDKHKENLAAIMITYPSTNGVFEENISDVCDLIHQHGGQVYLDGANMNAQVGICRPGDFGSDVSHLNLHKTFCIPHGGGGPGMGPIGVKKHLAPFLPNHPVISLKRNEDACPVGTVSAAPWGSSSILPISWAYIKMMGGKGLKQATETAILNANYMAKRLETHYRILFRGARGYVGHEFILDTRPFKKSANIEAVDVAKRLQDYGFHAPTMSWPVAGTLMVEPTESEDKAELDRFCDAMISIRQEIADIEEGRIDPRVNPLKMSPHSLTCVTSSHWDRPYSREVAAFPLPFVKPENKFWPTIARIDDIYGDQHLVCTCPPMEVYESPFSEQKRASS

[2] = system: cytoplasmic and mitochondrial aspartate aminotransferase; settings: cited from earlier work
GLDC [3] = biological target: T1, GLDC; assay: Victorin: inhibition of GLDC expression, tumour formation and cell proliferation (no method given)
3T3 cells = assay: Adherent colony formation with methotrexate, 3T3 cells overexpressing GLDC; assay type: cell-based, mouse; settings: low doses of methotrexate
Experimental: (§1) (E) Effects of the anti-folate drug methotrexate on colony formation after GLDC overexpression or knockdown. 3T3 and HLF cells overexpressing GLDC were plated at clonal density and exposed to varying concentrations of methotrexate for 8 days. A549 cells with GLDC knockdown were plated in soft agar at clonal density and exposed to varying concentrations of methotrexate for 14 days.
(§2) Adherent colony formation was performed by seeding 200-3000 single cells into 10 cm-culture dish and maintained for 10-14 days in DMEM/10% FBS. Colonies were stained by Wright-Giemsa and those colonies containing more than 50 cells were counted. For methotrexate (Sigma) treatment assay, cells were maintained in growth medium containing serial dilution of methotrexate (0, 0.1, 0.2, 0.5, 1, 2, 5, 10, 20 uM) and fresh medium were changed every 3 days.

A549 cells [4] = assay: Soft agar colony formation with methotrexate, A549 cells with GLDC knockdown; assay type: cell-based, human; settings: methotrexate in combination with GLDC shRNA versus either alone, 14 days
HLF cells = assay: Adherent colony formation with methotrexate, HLF cells overexpressing GLDC; assay type: cell-based, human; settings: low doses of methotrexate
Experimental: as §1, §2

A549 cells [5] = assay: Soft agar colony formation, sarcosine rescue after GLDC knockdown; assay type: cell-based, human; settings: 10 μM sarcosine
Experimental: (F) Effects of sarcosine on soft agar colony formation after GLDC knockdown in A549 cells. 1000 cells were seeded in soft agar at clonal density and exposed to 10 μM sarcosine for 14 days.
Soft agar assays were conducted as described previously (Viswanathan et al., 2009). We stained colonies with 1% INT and counted them after 3-4 weeks of growth. For sarcosine rescue experiment, 10 μM of sarcosine (sigma) or PBS were added to top cells layer of agar and growth medium containing sarcosine were changed every 3 days before counting colonies.

NOCC(=O)O [Aminooxyacetate, (Aminooxy) acetate]
GLDC binding and inhibition of GLDC activity (GLDC [1]): binds to GLDC and inhibits GLDC activity
inhibition of aspartate aminotransferase or glutamate transaminases [2]: powerful inhibitor

CC(C[C@H](NC(=O)C(O)O)C(=O)N[C@H](C(=O)N[C@@H]1C(=O)N/C(=C/Cl)C(=O)N[C@H](C(=O)O)CC2=C(CC(O)C2=O)O[C@H]1C(C)C)[C@H](O)CCCN)C(Cl)Cl (some centres unmarked) [Victorin]
inhibition of GLDC expression (GLDC [3]): able to inhibit GLDC expression
tumour formation and cell proliferation (GLDC [3]): block or reduced tumour formation and cell proliferation

CN(Cc1cnc2nc(N)nc(N)c2n1)c1ccc(C(=O)N[C@@H](CCC(=O)O)C(=O)O)cc1 [methotrexate]
GLDC-induced proliferation (colony formation) (3T3 cells; 3T3 cells overexpressing GLDC, 8 days): specifically abrogated GLDC-induced proliferation
effect on control cells (3T3 cells; control 3T3 cells): little effects
killing of transformed A549 cells (A549 cells [4]): killed transformed A549 cells much more effectively than either alone
GLDC-induced proliferation (colony formation) (HLF cells; HLF cells overexpressing GLDC, 8 days): specifically abrogated GLDC-induced proliferation
effect on control cells (HLF cells; control HLF cells): little effects

CNCC(=O)O [sarcosine, N-methylglycine]
rescue of proliferation defect upon GLDC knockdown (A549 cells [5]; 14 days, A549 cells with GLDC retroviral knockdown): significantly rescue the proliferation defect
effect on control A549 cells (A549 cells [5]; control A549 cells): little effect
